Where two headings read alike, the source gives them in different places. Bridge positions count the residues as written; N and C are the ends. Square brackets hold non-standard residues; d marks the D form. Peptide text beside a SMILES is read from it. * marks the point of attachment. X2 = CN1C[C@H](CSCC(=O)*)C[C@@H]2c3cccc4[nH]cc(c34)C[C@H]21
Legend:
[1] = target: hDRD2 (Homo sapiens (Human), UniProt P14416); assay: cell-based; conditions: for Emax: read-out: hDRD2 % Emax ± SEM
Procedure: (§5) The ability of select compounds according to the present invention to activate hSSTR2 and hDRD2 was determined by the intracellular calcium mobilization assay using FLIPR Calcium 4 assay kit (Molecular Devices).
(§6) Cells expressing hSSTR2 or hDRD2 were plated in 384-well microplates in tissue culture media and incubated for 16-24 hours at 37° C. in a humidified atmosphere with 5% CO2. Medium was replaced by loading buffer containing Hank's buffered saline, 20 mM HEPES, 2.5 mM probenecid and Calcium 4 dye, and the plates were incubated at 37° C. for 60 minutes.

[2] = target: T1, hSSTR2 (Homo sapiens (Human), UniProt P30874); assay: Intracellular calcium mobilization assay (FLIPR Calcium 4), hSSTR2; type: cell-based; conditions: for Emax: read-out: hSSTR2 % Emax ± SEM; for improvement in EC50 over Reference Compound A: Student's t-test, one-tailed, p <0.05;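 on all read-outs here: agonist activity read as intracellular calcium rise in cells expressing human SSTR2, loaded with a calcium-sensitive dye for 60 min at 37 °C, measured by FLIPR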
T1 sequence (P30874 whole entry): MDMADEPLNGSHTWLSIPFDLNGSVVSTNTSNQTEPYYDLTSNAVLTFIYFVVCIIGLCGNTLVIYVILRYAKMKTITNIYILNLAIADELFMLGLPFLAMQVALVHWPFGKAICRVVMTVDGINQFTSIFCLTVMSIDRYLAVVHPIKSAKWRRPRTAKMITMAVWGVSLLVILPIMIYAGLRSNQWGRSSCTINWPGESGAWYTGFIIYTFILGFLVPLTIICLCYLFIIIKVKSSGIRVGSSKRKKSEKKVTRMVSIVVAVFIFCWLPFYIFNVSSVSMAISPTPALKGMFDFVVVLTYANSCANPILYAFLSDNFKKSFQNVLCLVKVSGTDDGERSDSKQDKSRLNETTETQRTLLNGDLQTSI
Procedure: as §5, §6

[3] = tested on: pituitary tumor cells of acromegalic patients presenting with macroadenoma; assay: Human pituitary adenoma cell growth hormone release assay; type: cell-based; conditions: 18 hours incubation, FIG. 5
Procedure: FIG. 1 is a graph showing the Growth hormone suppressing activity of Compound 4 (see Table I hereinbelow for its chemical name and its corresponding structural representation) on pituitary tumor cells of acromegalic patients presenting with macroadenoma. Various concentrations of Compound 4 were added to the medium and the cells were incubated for 18 hours before measurement of Growth hormone levels in the medium using the AlphaLISA Growth Hormone Immunoassay Research kit (PerkinElmer).
Various concentrations of Compounds 4 and 5 were added to the medium and the cells were incubated for 18 hours before measurement of Growth hormone levels in the medium using the AlphaLISA Growth Hormone Immunoassay Research kit (PerkinElmer).
Acromegalic patients presenting with macroadenoma underwent transsphenoidal surgery and a portion of each tumor obtained at surgery was dissociated by enzymatic and mechanical methods. The cells were cultured in DMEM medium supplemented with 10% FBS and antibiotics for 3 days. The cells were then plated in multi-well tissue culture dishes coated with extracellular matrix from bovine endothelial corneal cells at a density of 3-5×10^4 cells/well in DMEM supplemented with 10% FBS and antibiotics. After 2-3 days of culture, the medium was changed to DMEM supplemented with 1% FBS, antibiotics and 1% ITS (insulin, transferrin and selenium).

[4] = target: hSSTR3 (Homo sapiens (Human), UniProt P32745); assay: Somatostatin receptor radioligand binding assay, hSSTR3; conditions: CHO-K1 membranes, [125I-Tyr11]-SRIF-14; read-out: hSSTR3 Ki (nM) ± SEM
hSSTR3, sequence (P32745 whole entry): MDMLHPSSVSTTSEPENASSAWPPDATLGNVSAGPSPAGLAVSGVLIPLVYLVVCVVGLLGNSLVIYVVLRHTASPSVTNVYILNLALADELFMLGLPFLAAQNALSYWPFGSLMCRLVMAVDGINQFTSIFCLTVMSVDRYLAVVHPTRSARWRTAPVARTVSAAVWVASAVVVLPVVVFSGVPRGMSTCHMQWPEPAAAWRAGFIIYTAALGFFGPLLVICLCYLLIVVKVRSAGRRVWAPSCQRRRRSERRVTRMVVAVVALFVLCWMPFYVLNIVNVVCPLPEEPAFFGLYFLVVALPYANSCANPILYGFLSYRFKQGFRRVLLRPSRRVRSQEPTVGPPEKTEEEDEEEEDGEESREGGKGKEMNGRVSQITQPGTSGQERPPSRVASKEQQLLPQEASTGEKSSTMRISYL
Procedure: (§1) The affinities of a test compound for the human somatostatin receptors were determined by radioligand binding assays in CHO-K1 cells stably transfected with each of the human somatostatin receptor subtypes, hSSTR1-5. […] Clonal cell lines stably expressing each of the somatostatin receptors were obtained by transfection into CHO-K1 cells (ATCC) and subsequently selected with culture media containing 0.8 mg/mL of G418 (Life Technologies).
(§2) Membranes for in vitro receptor binding assays were obtained by the following procedures. CHO-K1 cells expressing one of the somatostatin receptors were homogenized in ice-cold buffer with 10 mM Tris-HCl, 5 mM EDTA, 3 mM EGTA, 1 mM phenylmethylsuphonyl fluoride, pH 7.6, using Polytron PT10-35GT (Kinematica) at 18,000 rpm for 30 seconds and centrifuged at 500×g for 10 minutes. The supernatant containing the plasma membranes was centrifuged at 100,000×g for 30 minutes and the pellet was resuspended in buffer containing 20 mM glycine-glycine, 1 mM MgCl2, 250 mM sucrose, pH 7.2, for storage at −80° C.
(§3) For the hSSTR3 and 4 assays, membranes and various concentrations of test compounds were incubated in 96-well plates for 60 minutes at 25° C. with 0.05 nM [^125I-Tyr^11]-SRIF-14 (PerkinElmer Life Science) in 50 mM HEPES, 0.2% BSA, 5 mM MgCl2, 200 KIU/mL trasylol, 0.02 mg/mL bacitracin, and 0.02 mg/mL phenylmethylsuphonyl fluoride, pH 7.5.
(§4) The incubations were terminated by rapid filtration through GF/C glass microfiber filter plates (pre-wet with 0.3% polyethyleneimine and 0.1% BSA) using a 96-well cell harvester (Brandel). Plates were washed six times with 1 mL/well aliquots of ice-cold buffer containing 50 mM Tris buffer, pH 7.7. Specific binding was defined as the total radioligand bound minus the bound in the presence of 1000 nM SRIF-14.

[5] = target: hSSTR4 (Homo sapiens (Human), UniProt P31391); assay: Somatostatin receptor radioligand binding assay, hSSTR4; conditions: CHO-K1 membranes, [125I-Tyr11]-SRIF-14; read-out: hSSTR4 Ki (nM) ± SEM
hSSTR4, sequence (P31391 whole entry): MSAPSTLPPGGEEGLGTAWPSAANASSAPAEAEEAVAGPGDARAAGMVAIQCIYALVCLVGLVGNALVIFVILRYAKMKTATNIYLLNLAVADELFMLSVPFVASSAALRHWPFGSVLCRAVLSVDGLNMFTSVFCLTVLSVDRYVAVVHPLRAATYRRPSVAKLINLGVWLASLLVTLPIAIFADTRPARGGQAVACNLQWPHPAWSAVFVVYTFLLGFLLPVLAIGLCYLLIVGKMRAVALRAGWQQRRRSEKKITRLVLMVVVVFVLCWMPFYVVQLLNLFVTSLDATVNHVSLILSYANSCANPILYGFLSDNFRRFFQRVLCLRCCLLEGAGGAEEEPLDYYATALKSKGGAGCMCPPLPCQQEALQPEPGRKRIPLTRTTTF
Procedure: as §1, §2, §3, §4

[6] = target: T1, hSSTR2; assay: Somatostatin receptor radioligand binding assay, hSSTR2; conditions: CHO-K1 membranes, [125I-Tyr]-seglitide; read-out: hSSTR2 Ki (nM) ± SEM
Procedure: The affinities of a test compound for the human somatostatin receptors were determined by radioligand binding assays in CHO-K1 cells stably transfected with each of the human somatostatin receptor subtypes, hSSTR1-5. The cDNA coding sequences of hSSTR1 (GenBank accession No. NM—001049.1), hSSTR2 (GenBank accession No. XM—012697.1), hSSTR3 (GenBank accession No. XM—009963.1), hSSTR4 (GenBank accession No. NM—001052.1), and hSSTR5 (GenBank accession No. XM—012565.1) were subcloned into the mammalian expression vector pcDNA3.1 (Life Technologies). Clonal cell lines stably expressing each of the somatostatin receptors were obtained by transfection into CHO-K1 cells (ATCC) and subsequently selected with culture media containing 0.8 mg/mL of G418 (Life Technologies).
Membranes for in vitro receptor binding assays were obtained by the following procedures. […] The supernatant containing the plasma membranes was centrifuged at 100,000×g for 30 minutes and the pellet was resuspended in buffer containing 20 mM glycine-glycine, 1 mM MgCl2, 250 mM sucrose, pH 7.2, for storage at −80° C. […]

## C[C@@H](O)[C@@H]1NC(=O)[C@H](CCCCN)NC(=O)[C@@H](Cc2c[nH]c3ccccc23)NC(=O)[C@H](Cc2ccccc2)NC(=O)[C@H](Cc2ccccc2)NC(=O)[C@H](CCCNC(=N)N)NC(=O)[C@H](NC[C@H](Cc2ccc(O)cc2)NC(=O)CSC[C@@H]2C[C@@H]3c4cccc5[nH]cc(c45)C[C@H]3N(C)C2)CCCCNC(=O)[C@H](Cc2ccc(F)cc2)NC1=O [Compound 5, Dop1-Tyr-psi(CH2NH)-cyclo(DLys-Arg-Phe-Phe-DTrp-Lys-Thr-4FPhe)]
[1]
  EC50: 0.0301 ± 0.0053 µM
[2]
  EC50: 14.6 ± 1.9 nM
  Emax: 97 ± 3.6%
[2]; calcium mobilization
  improvement in EC50 and/or % Emax over Reference Compound B: statistically significant improvement
[3]
  Growth hormone suppressing activity compared to parent somatostatin analogs: enhanced Growth hormone suppressing activity

## C[C@@H](O)[C@@H]1NC(=O)[C@H](CCCCN)NC(=O)[C@@H](Cc2c[nH]c3ccccc23)NC(=O)[C@H](Cc2ccncc2)NC(=O)[C@H](Cc2ccccc2)NC(=O)[C@H](CCCNC(=N)N)NC(=O)[C@H](NCC[S@@+]([O-])C[C@@H]2C[C@@H]3c4cccc5[nH]cc(c45)C[C@H]3N(C)C2)CCCCNC(=O)[C@H](Cc2ccc(O)cc2)NC1=O [Compound 12, Dop1[(S)SO]-psi(CH2NH)-cyclo(DLys-Arg-Phe-4Pal-DTrp-Lys-Thr-Tyr)]
[4]
  Ki: 143 ± 65.2 nM
[2]
  Emax: 90.9 ± 12.9%
[5]
  Ki: 3.2 ± 0.7 nM

## C[C@@H](O)[C@@H]1NC(=O)[C@H](CCCCN)NC(=O)[C@@H](Cc2c[nH]c3ccccc23)NC(=O)[C@H](Cc2cccnc2)NC(=O)[C@H](Cc2ccccc2)NC(=O)[C@H](CCCNC(=N)N)NC(=O)[C@H](NC[C@H](Cc2ccc(O)cc2)NC(=O)CSC[C@@H]2C[C@@H]3c4cccc5[nH]cc(c45)C[C@H]3N(C)C2)CCCCNC(=O)[C@H](Cc2ccccc2)NC1=O [Compound 38, Dop1-Tyr-psi(CH2NH)-cyclo(DLys-Arg-Phe-3Pal-DTrp-Lys-Thr-Phe)]
[1]
  EC50: 0.0075 ± 0.0001 µM
[6]
  Ki: 0.76 ± 0.23 nM
[2]; calcium mobilization, read-out: hSSTR2 EC50 (nM) ± SEM
  EC50: 24.9 ± 7.7 nM
[2]; maximal effect in percentage of the maximal effect of SRIF-14
  Emax: 83.5 ± 4.4%

## C[C@@H](O)[C@@H]1NC(=O)[C@H](CCCCN)NC(=O)[C@@H](Cc2c[nH]c3ccccc23)NC(=O)[C@H](Cc2ccncc2)NC(=O)[C@H](Cc2ccccc2)NC(=O)[C@H](CCCNC(=N)N)NC(=O)[C@H](NCC[S@+]([O-])C[C@@H]2C[C@@H]3c4cccc5[nH]cc(c45)C[C@H]3N(C)C2)CCCCNC(=O)[C@H](Cc2ccc(O)cc2)NC1=O [Compound 11, Dop1[(R)SO]-psi(CH2NH)-cyclo(DLys-Arg-Phe-4Pal-DTrp-Lys-Thr-Tyr)]
[4]
  Ki: 30.9 ± 11.7 nM
[2]
  Emax: 92.3 ± 4.6%
[5]
  Ki: 2.1 ± 0.4 nM

## C[C@@H](O)[C@@H]1NC(=O)[C@H](CCCCN)NC(=O)[C@@H](Cc2c[nH]c3ccccc23)NC(=O)[C@H](Cc2ccccc2)NC(=O)[C@H](Cc2ccccc2)NC(=O)[C@H](CCCNC(=N)N)NC(=O)[C@H](NC[C@@H](Cc2ccc(O)cc2)NC(=O)CSC[C@@H]2C[C@@H]3c4cccc5[nH]cc(c45)C[C@H]3N(C)C2)CCCCNC(=O)[C@H](Cc2ccccc2)NC1=O [Compound 41, Dop1-DTyr-psi(CH2NH)-cyclo(DLys-Arg-Phe-Phe-DTrp-Lys-Thr-Phe)]
[1]
  EC50: 0.0626 µM
[2]
  EC50: 29.6 nM
  Emax: 104%

## C[C@@H](O)[C@@H]1NC(=O)[C@H](CCCCN)NC(=O)[C@@H](Cc2c[nH]c3ccccc23)NC(=O)[C@H](Cc2ccccc2)NC(=O)[C@H](Cc2ccccc2)NC(=O)[C@H](CCCNC(=N)N)NC(=O)[C@H](NCCS(=O)(=O)C[C@@H]2C[C@@H]3c4cccc5[nH]cc(c45)C[C@H]3N(C)C2)CCCCNC(=O)[C@H](Cc2ccc(F)cc2)NC1=O [Compound 10, Dop1(SO2)-psi(CH2NH)-cyclo(DLys-Arg-Phe-Phe-DTrp-Lys-Thr-4FPhe)]
[4]
  Ki: 27.9 nM
[2]
  Emax: 84.8 ± 13%
[5]
  Ki: 20.6 nM

## C[C@@H](O)[C@@H]1NC(=O)[C@H](CCCCN)NC(=O)[C@@H](Cc2c[nH]c3ccccc23)NC(=O)[C@H](Cc2ccccc2)NC(=O)[C@H](Cc2ccccc2)NC(=O)[C@H](CCCNC(=N)N)NC(=O)[C@H](NC(=O)[C@@H](Cc2ccc(O)cc2)NC(=O)CSC[C@@H]2C[C@@H]3c4cccc5[nH]cc(c45)C[C@H]3N(C)C2)CCCCNC(=O)[C@H](Cc2ccccc2)NC1=O [Compound 37, Dop1-DTyr-cyclo(DLys-Arg-Phe-Phe-DTrp-Lys-Thr-Phe)] (X2-[dY][dK]RFF[dW]KTF; lactam 2-C)
[1]
  Emax: 93.7 ± 4.3%
[2]
  Emax: 85.5 ± 6.7%

## C[C@@H](O)[C@@H]1NC(=O)[C@H](CCCCN)NC(=O)[C@@H](Cc2c[nH]c3ccccc23)NC(=O)[C@H](Cc2ccncc2)NC(=O)[C@H](Cc2ccccc2)NC(=O)[C@H](CCCNC(=N)N)NC(=O)[C@H](NC[C@H](Cc2ccc(O)cc2)NC(=O)CSC[C@@H]2C[C@@H]3c4cccc5[nH]cc(c45)C[C@H]3N(C)C2)CCCCNC(=O)[C@H](Cc2ccccc2)NC1=O [Compound 4, Dop1-Tyr-psi(CH2NH)-cyclo(DLys-Arg-Phe-4Pal-DTrp-Lys-Thr-Phe)]
[1]
  EC50: 0.0201 ± 0.0026 µM
[2]
  EC50: 7.6 ± 1.5 nM
  Emax: 100 ± 2.9%
[2]; calcium mobilization
  improvement in EC50 and/or % Emax over Reference Compound B: statistically significant improvement
[3]
  Growth hormone suppressing activity compared to parent somatostatin analogs: enhanced Growth hormone suppressing activity

## C[C@@H](O)[C@@H]1NC(=O)[C@H](CCCCN)NC(=O)[C@@H](Cc2c[nH]c3ccccc23)NC(=O)[C@H](Cc2ccccc2)NC(=O)[C@H](Cc2ccccc2)NC(=O)[C@H](CCCNC(=N)N)NC(=O)[C@H](NCCSC[C@@H]2C[C@@H]3c4cccc5[nH]cc(c45)C[C@H]3N(C)C2)CCCCNC(=O)[C@H](Cc2ccc(F)cc2)NC1=O [Compound 6, Dop1-psi(CH2NH)-cyclo(DLys-Arg-Phe-Phe-DTrp-Lys-Thr-4FPhe)]
[1]
  Emax: 88.3 ± 5.1%
[2]
  improvement in EC50 over Reference Compound A: statistically significant improvement
  Emax: 99.1 ± 0.6%

## C[C@@H](O)[C@@H]1NC(=O)[C@H](CCCCN)NC(=O)[C@@H](Cc2c[nH]c3ccccc23)NC(=O)[C@H](Cc2ccncc2)NC(=O)[C@H](Cc2ccccc2)NC(=O)[C@H](CCCNC(=N)N)NC(=O)[C@H](NCCSC[C@@H]2C[C@@H]3c4cccc5[nH]cc(c45)C[C@H]3N(C)C2)CCCCNC(=O)[C@H](Cc2ccc(O)cc2)NC1=O [Compound 7, Dop1-psi(CH2NH)-cyclo(DLys-Arg-Phe-4Pal-DTrp-Lys-Thr-Tyr)]
[1]
  Emax: 102 ± 5%
[2]
  improvement in EC50 over Reference Compound A: statistically significant improvement
  Emax: 96.9 ± 2.5%

## C[C@@H](O)[C@@H]1NC(=O)[C@H](CCCCN)NC(=O)[C@@H](Cc2c[nH]c3ccccc23)NC(=O)[C@H](Cc2ccncc2)NC(=O)[C@H](Cc2ccccc2)NC(=O)[C@H](CCCNC(=N)N)NC(=O)[C@H](NCCS(=O)(=O)C[C@@H]2C[C@@H]3c4cccc5[nH]cc(c45)C[C@H]3N(C)C2)CCCCNC(=O)[C@H](Cc2ccc(O)cc2)NC1=O [Compound 20, Dop1(SO2)-psi(CH2NH)-cyclo(DLys-Arg-Phe-4Pal-DTrp-Lys-Thr-Tyr)]
[1]
  EC50: 0.0074 ± 0.0015 µM
[2]
  EC50: 0.7 ± 0.1 nM
  Emax: 100.2 ± 0.9%

From patent US8952128B2, “Somatostatin-dopamine chimeric analogs” (priority 2012, dated 2015)
